Test results: patent US20250206779A1, “ANGIOTENSIN-(1-9) ANALOGUE BASED ON D AMINO ACIDS, PHARMACEUTICAL COMPOSITIONS AND USES THEREOF” (UNIVERSIDAD DE CHILE, priority 2021, published 2025)
“Also recorded” adds a separate entry of the source. Where a SMILES comes first, the peptide text is derived from it. [ ]: non-standard residue; d: D form.

Assays:
[1] = test system: spontaneously hypertensive rats (SHR); test: Cardiac hypertrophy by morphometry analysis in SHR; assay type: in vivo, rat; details: SHR, 1,200 ng/kg/min, 14 days, left ventricle
Procedure: (§1) Experimental animal model. All procedures were performed in accordance with the Guide for the Care and Use of Laboratory Animals published by the U.S. National Institutes of Health (NIH Publication 85 23, 1985) and approved by our Institutional Bioethics Committee. The animals were housed under the continuous professional monitoring of the Medical Veterinary staff in the animal facility of the Pontificia Universidad Católica de Chile, under the following conditions: 12-h light-dark cycle; 21° C. ambient temperature; 50% humidity; adequate ventilation; noise-free environment; and food and water ad libitum. Male spontaneously hypertensive rats (SHR, age 12 weeks) and normotensive Wistar Kyoto rats (WKY, 12 weeks age) were used. […] Systolic blood pressure (SBP), diastolic blood pressure (DBP) and body weight (BW) were measured at the end of the treatment period and the animals were then sacrificed.
Measurement of cardiac hypertrophy by morphometry analysis. […] Cardiomyocyte size (area and perimeter) was determined as described by Ocaranza et al. (J. Hypertens. 2010; 28:1054-1064). […]

[2] = test system: spontaneously hypertensive rats (SHR); test: Cardiac-resident macrophage phenotype M1/M2 in SHR, flow cytometry; assay type: in vivo, rat; details: SHR, 1,200 ng/kg/min, 14 days
Procedure: as §1, with “sacrificed. […]” for “sacrificed.”

[3] = test system: cardiac myocytes isolated from neonatal Sprague-Dawley rat ventricles; test: Norepinephrine-induced cardiomyocyte hypertrophy, western blot of β-MHC and ANP; assay type: cell-based; details: 1, 10 or 100 μM peptide, 10 μM norepinephrine
Procedure: Cardiac myocytes were isolated from neonatal Sprague-Dawley rat ventricles. Cardiac myocytes were plated at 70% final density in gelatin-coated wells (12-well plates) or in 60-mm Petri dishes and maintained at 37° C. in a humidified atmosphere of 5% CO2/95% air for 24 h in Dulbecco's Modified Eagle's medium [(DMEM)/M199](4:1) containing 10% fetal bovine serum and 5% fetal calf serum. Serum was withdrawn 24 h before preincubation with 1, 10 or 100 μM retro-inverse angiotensin-(1-9) for 1 h; then, 10 μM norepinephrine (Sigma, St Louis, Missouri, USA) were added and the cultures were incubated for 24 h. Then cells were washed with PBS at 4° C. and then cells were lysed with 50 μL of RIPA lysis buffer (Tris-HCl 10 mM pH 7.4, EDTA 5 mM, NaCl 50 mM, deoxycholic acid 1%, Triton X-100 1% v/v) supplemented with phosphatase and protease inhibitors (Roche). After centrifugation at 12,000 r.p.m. for 15 min at 4° C., the supernatat was recovered; total protein content was determined by using Bradford (BioRad protein assay, BioRad, Hercules, CA, USA). Proteins were denatured in SDS-PAGE 4× buffer and resolved in 12% PAGE-SDS. After electrotransference, beta-myosin heavy chain (β-MHC) and atrial natriuretic peptide (ANP) were used as hypertrophic markers. β-tubulin was used as loading control. As expected, norepinephrine 10 μM for […], a cardiomyocyte hypertrophy inducer, triggered β-MHC and ANP increase (FIG. 3).

CC[C@@H](C)[C@@H](NC(=O)[C@@H](Cc1c[nH]cn1)NC(=O)[C@H]1CCCN1C(=O)[C@@H](Cc1ccccc1)NC(=O)[C@H](N)Cc1c[nH]cn1)C(=O)N[C@H](Cc1ccc(O)cc1)C(=O)N[C@@H](C(=O)N[C@H](CCCNC(=N)N)C(=O)N[C@H](CC(=O)O)C(=O)O)C(C)C [retro-inverse angiotensin-(1-9), NH2-^DH^DF^DP^DH^DI^DY^DV^DR^DD-COOH] (H-[dH][dF][dP][dH][dI][dY][dV][dR][dD]-OH)
increase of area of cardiomyocytes induced by hypertension [1]: reversed the increase | increase of perimeter of cardiomyocytes induced by hypertension [1]: reversed the increase | macrophages M1 in cardiac tissues [2]: reversed the increase; also recorded: more marked decrease in macrophages M1 than angiotensin-(1-9) | macrophages M2 in cardiac tissues [2]: increases the macrophages M2 | increase of ANP induced by norepinephrine [3]: inhibited, in a dose response manner | increase of β-MHC induced by norepinephrine [3]: inhibited, in a dose response manner
